Results reported in US9005677B2, “Autophagy enhancer for treatment of neurodegenerative diseases” (Macau University of Science and Technology, priority 2013, dated 2015).

Key:
[1] = biological target: T1, α-synuclein oligomerization in HeLa cells transfected with GNS and SGC (Homo sapiens, UniProt P37840); assay: Bimolecular fluorescence complementation (BiFC) assay; format: cell-based; conditions: 24 hours at 30° C.
T1 construct: expressed in transfected cells; host or cells: HeLa cells
Method: Bimolecular fluorescence complementation (BiFC) assay. In brief, HeLa cells transfected with both GFP-N terminal-α-synuclein (GNS) and α-synuclein-GFP-C terminal (SGC) plasmids were incubated at 37° C. for 4 hours. Then, the transfected cells were incubated with different concentrations of Radix Polygalae ethanol extract or Onjisaponin B for a further 24 hours at 30° C.. Fluorescent signals upon complete GFP fluorophore reconstitution in cells were then detected by flow analysis.
Results: By using the bimolecular fluorescence complementation (BiFC) assay, the oligomerization of α-synuclein in living cells can be directly quantified. In brief, α-synuclein proteins fused with two different non-fluorescent GFP terminal fragments, (i) GFP-N terminal-α-synuclein (GNS) or (ii) α-synuclein-GFP-C terminal (SGC) respectively were used. Upon oligomerization of α-synuclein, the two non-fluorescent fractions of GFP will therefore reconstitute the complete GFP fluorophore and transmit GFP fluorescent signal within cells. This signal in turn can be quantified by flow cytometry analysis.

[2] = tested on: mutant A53T α-synuclein in doxycycline inducible PC 12 cell line; assay: Clearance of mutant A53T α-synuclein, immunoblotting against myc tag; format: cell-based, rat; conditions: PC 12 cells, 24 hours after doxycycline removal
Method: Removal of mutant huntingtin and mutant α-synuclein. PC 12 cells were transfected transiently with EGFP-HDQ74 plasmids for 24 hours using Lipofectamine Plus LTX reagent (Invitrogen) according to the manufacturer's protocol. The transfected cells were then treated with Onjisaponin B for 24 hours. The removal of mutant huntingtin, EGFP-HDQ74, was then quantitated by immunoblotting with antibody against EGFP. To measure the clearance of α-synuclein in cellular model, the overexpression of mutant A53T α-synuclein was first induced by the addition of doxycycline (1 μg/ml) (Sigma) for 24 hours, by using the doxycycline inducible PC 12 cell line transfected with A53T α-synuclein plasmid. The expression of mutant A53T α-synuclein was then switched off by removing doxycycline from medium. Cells were then incubated with Onjisaponin B for a further 24 hours. The clearance of mutant α-synuclein was then measured by immunoblotting with antibody against myc tag.

[3] = tested on: PC-12 cells transfected with mutant huntingtin EGFP-HDQ74; assay: MTT viability of PC-12 cells expressing mutant huntingtin; format: cell-based, rat; conditions: 25 μmol/L, 2 days
Method: Cell cytotoxicity assay: Cytotoxicity was assessed using the 344,5-dimethylthiazol-2-yl)-2,5-diphenyltetrazolium bromide assay as described previously. PC-12 cells were transfected with or without mutant huntingtin EGFP-HDQ74 for 24 h. The PC-12 cells were then seeded on 96-well plates with 4000 cells per well and then exposed to the indicated concentrations of Onjisaponin B (25 μmol/L) for 2 days. Subsequently, 10 μL of MTT reagents was added to each well and incubated at 37° C. for 4 hours, followed by the addition of 100 μL solubilization buffer (10% SDS in 0.01 mol/L HCl) and overnight incubation. Absorbance at 585 nm was determined from each well on the next day. The percentage of cell viability was calculated using the following formula: Cell viability (%)=Cells number treated/Cells number DMSO control×100. Data was obtained from three independent experiments.

SMILES: COc1ccc(/C=C/C(=O)O[C@@H]2[C@H](O[C@@H]3O[C@@H](C)[C@H](O)[C@@H](O)[C@H]3O)[C@@H](O[C@@H]3O[C@@H](C)[C@H](O[C@@H]4OC[C@@H](O[C@@H]5O[C@H](CO)[C@H](O)[C@H](O)[C@H]5O)[C@H](O)[C@H]4O)[C@@H](O)[C@H]3O)[C@H](OC(=O)[C@]34CCC(C)(C)C[C@H]3C3=CC[C@@H]5[C@@]6(C)C[C@H](O)[C@H](O[C@@H]7O[C@H](CO)[C@@H](O)[C@H](O)[C@H]7O)[C@@](C)(C(=O)O)[C@@H]6CC[C@@]5(C)[C@]3(CO)CC4)O[C@@H]2C)cc1 [Onjisaponin B]
- Oligomerization of α-synuclein (GFP fluorescent signal, flow analysis) [1]: inhibit the oligomerization of α-synuclein
- Clearance of myc-tagged mutant A53T α-synuclein [2]: accelerate the clearance
- Toxicity in PC-12 cells expressing mutant huntingtin (cell viability, MTT) [3]: reduced toxicity
